According to patent US11396501B2, “Heteroaryl compounds as CXCR4 inhibitors, composition and method using the same” (CGENETECH (SUZHOU, CHINA) CO., LTD., priority 2017, dated 2022):

Experiments:
CXCR4 [1] = molecular target: T1, CXCR4 (Homo sapiens, UniProt P61073); test: FLIPR Tetra calcium mobilization assay; format: cell-based; settings: Human CD4+ T-Cells; CXCL12 added; FLIPR Calcium 4 assay kit
Description: FLIPR Tetra Calcium Mobilization Assay The FLIPR Tetra calcium mobilization assay was performed by HD Bioscience. Briefly, The Molecular Devices, Fluorescent Imaging Plate Reader (FLIPR) Tetra was used in this assay. Excitation was achieved through unique placement of LED's within the instrument and emission captured by a CCD camera (EMCCD camera for FI and ICCD camera for luminescence). The homogeneous FLIPR Calcium 4 assay kit from Molecular Devices was used as the fluorescence reagent. Compounds were solubilized in 100% dimethyl sulfoxide (DMSO) to a concentration of 30 mM. A 10-point, 4-fold, intermediate dilution series was created in 100% DMSO with a top concentration of 4 mM and a bottom concentration of 0.01 μM. A near assay ready, direct dilution plate ([…]) was prepared from this compound dilution plate by transferring 1 μL of each dilution of compound in 100% DMSO to a Greiner #781201 plate. In addition, each […] plate also contained positive and negative control wells to define the upper and lower limits for the assay signal. The final assay concentration range of compound was 10 μM to 0.035 nM in 0.5% DMSO. Human CD^4+ T-Cells were isolated from human whole blood and subsequently activated and expanded using a CD3/CD28 expansion kit (Life Technologies). The cells were frozen in ThermoFisher-formulated Recovery Cell Culture Freezing Medium containing 10% Dimethyl sulfoxide (DMSO) and 10% Fetal Bovine Serum (FBS) (ThermoFisher Catalog No. 10100147). When used, cells were resuspended using room temperature 1× HBSS/20 mM HEPES/0.005% P-104 assay buffer, adjusted the volume of the suspension to achieve a cell concentration of 2.5×10^6 cells/mL. 2× Calcium 4 dye (20 μL/well) were added and the mixture were centrifuged briefly ( 10 s) and stopped when it reached 1000 rpm. The plates were allowed to equilibrate before compounds and CXCL12 were added to the plates. The raw data were analyzed using Abase. The percent (%) effect at each concentration of compound was calculated by Abase and was based on and relative to the amount of calcium produced in the positive and negative control wells contained within each assay plate. The concentrations and % effect values for tested compounds were plotted by Abase and the concentration of compound required for 50% effect (IC50) was determined with a four-parameter logistic dose response equation. FIGS. 3 and 4 summarize the results of Compounds A78 and A83 in the calcium mobilization assay.

CXCR4 [2] = molecular target: T1, CXCR4; test: HPB-ALL CXCR4 competitive binding assay (12G5 binding assay); set-up: HPB-ALL cells were maintained in RPMI-1640 (Gibico) supplemented with 10% FBS (Hyclone); endogenous in cells; host or cells: HPB-ALL cells; settings: HPB-ALL cells; competition with APC-conjugated anti-human CXCR4 clone 12G5 at its EC80; 4° C. for 3 h; FACS
Description: HPB-ALL CXCR4 Competitive Binding Assay
HPB-ALL cells were maintained in RPMI-1640 (Gibico) supplemented with 10% FBS (Hyclone). APC-conjugated anti-human CXCR4 was from Sungene. EC80 was first determined for 12G5 binding to CXCR4. Then the compounds for testing were added into 96-well plates serially diluted at a ratio of 1:3. Cells were washed once with ice-cold assay buffer (DPBS+2% HI-FBS) and then re-suspended in the same buffer at a final concentration of 1×10^6/mL. Cell suspension was then added into the wells and with the addition of APC-conjugated anti-human CXCR4 clone 12G5 at its EC80 determined. The mix of cell, compounds and APC-conjugated anti-human CXCR4 were incubated at 4° C. for 3 h before addition of 100 μL of 4% PFA. Cells were then washed once and resuspended in assay buffer and examined by FACS. The percent (%) effect at each concentration of compound was calculated and relative to the amount of calcium produced in the positive and negative control wells contained within each assay plate. The concentrations and % effect values for tested compounds were plotted and the concentration of compound required for 50% effect (IC50) was determined. Tables 2 summarize results of the CXCR4 competitive binding assay for selected compounds disclosed in the present disclosure. FIGS. 1-2 depict the IC50 curves of compounds A42 and A43.

T1 sequence (P61073 whole entry): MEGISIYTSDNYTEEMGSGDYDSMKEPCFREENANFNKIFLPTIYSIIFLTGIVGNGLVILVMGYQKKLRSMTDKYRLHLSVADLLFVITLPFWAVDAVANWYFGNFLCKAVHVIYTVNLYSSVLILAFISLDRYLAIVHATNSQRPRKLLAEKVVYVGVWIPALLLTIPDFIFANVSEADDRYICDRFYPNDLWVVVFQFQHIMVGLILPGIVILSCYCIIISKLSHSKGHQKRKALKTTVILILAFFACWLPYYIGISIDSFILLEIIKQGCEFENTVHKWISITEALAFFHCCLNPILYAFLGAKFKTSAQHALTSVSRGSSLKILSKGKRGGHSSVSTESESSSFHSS

Row | Compound | IC50 (CXCR4 [1]) | IC50 (CXCR4 [2])
1 | CN1CCN(c2cccc3nc(CN(C)c4cccc5cccnc45)c(CO)n23)CC1 [Compound D39] | 0.088 nM | –
2 | Cc1nc(CN(C)[C@@H](C)c2ccccn2)cc(N2CCN3CCC[C@@H]3C2)n1 [Compound A78] | 0.062 nM | –
3 | Cc1nc(CN(C)c2c(CO)ccc3cccnc23)cc(N2CCN(C)CC2)n1 [Compound D56] | 5.5 nM | –
4 | COc1cccnc1[C@H](C)N(C)Cc1cc(N2CCN(C)CC2)nc(C)n1 [Compound A92] | 118 nM | –
5 | CN1CCN(c2cc(CN(C)c3cccc4cccnc34)nc(C3CC3)n2)CC1 [Compound D10] | 2.9 nM | –
6 | Cc1cccnc1[C@@H]1CCCN1Cc1nc2cccc(N3CCN(C)CC3)n2c1CO [Compound C39, (S)-(5-(4-methylpiperazin-1-yl)-2-((2-(3-methylpyridin-2-yl)pyrrolidin-1-yl)methyl)imidazo[1,2-a]pyridin-3-yl)methanol] | 0.1 nM | –
7 | Cc1nc(CN(C)c2cc(C#N)cc3cccnc23)cc(N2CCN(C)CC2)n1 [Compound D46] | 53 nM | –
8 | Cc1nc(CN(C)c2cc(F)cc3cccnc23)cc(N2CCN(C)CC2)n1 [Compound D18] | 0.79 nM | –
9 | Cc1nc(CN(C)c2cc(F)cc3cccnc23)cc(N2CCN(C)CC2CO)n1 (centres unmarked) [Compound D52] | 4.5 nM | –
10 | Cc1nc(CN(CCCC(=O)OC(C)(C)C)c2cccc3cccnc23)cc(N2CCN(C)CC2)n1 [Compound D29] | 12.7 nM | –
11 | CN1CCN(c2cccc3nc(CN(C)c4cccc5cccnc45)cn23)CC1 [Compound D38] | 0.18 nM | –
12 | Cc1nc(CN(C)c2c(Br)ccc3cccnc23)cc(N2CCN(C)CC2)n1 [Compound D49] | 4.5 nM | –
13 | Cc1nc(CN(C)c2cccc3cccnc23)cc(N2CCCN(C)CC2)n1 [Compound D3] | 0.63 nM | –
14 | CCN(Cc1cc(N2CCN(C)CC2)nc(C)n1)[C@@H](C)c1ccccn1 [Compound A80] | 0.18 nM | –
15 | C[C@@H](c1ccccn1)N(C)Cc1cc(N2CCN(C)CC2)nc(N)n1 [Compound A83] | 0.93 nM | –
16 | Cc1nc(CN(CCCC(N)=O)c2cccc3cccnc23)cc(N2CCN(C)CC2)n1 [Compound D31, 4-(((2-methyl-6-(4-methylpiperazin-1-yl)pyrimidin-4-yl)methyl)(quinolin-8-yl)amino)butanamide] | 1.25 nM | –
17 | C[C@@H](c1ccccn1)N(C)Cc1cn2c(N3CCN4CCC[C@H]4C3)cccc2n1 [Compound A97] | 0.25 nM | –
18 | Cc1nc(CN(C)c2cc(F)cc3cccnc23)cc(N2CCN(C)C(CO)C2)n1 (centres unmarked) [Compound D53] | 6.7 nM | –
19 | Cc1nc(CN2CCC[C@H]2c2ncccc2C)cc(N2CCC(N(C)C)CC2)n1 [Compound C37] | 12 nM | –
20 | CCc1nc(CN(C)c2cccc3cccnc23)cc(N2CCN(C)CC2)n1 [Compound D9] | 0.59 nM | –
21 | Cc1nc(CN(C)c2ccc(C)c3cccnc23)cc(N2CCN(C)CC2)n1 [Compound D16] | 2.7 nM | –
22 | Cc1nc(CN(C)c2cccc3cccnc23)c(C)c(N2CCN(C)CC2)n1 [Compound D33] | 0.51 nM | –
23 | Cc1cccnc1[C@@H]1CCCN1Cc1cn2c(N3CCN(C)CC3)cccc2n1 [Compound C38, (S)-5-(4-methylpiperazin-1-yl)-2-((2-(3-methylpyridin-2-yl)pyrrolidin-1-yl)methyl)imidazo11,2-alpyridine] | 0.2 nM | –
24 | CCN(Cc1cc(N2CCN(C)CC2)nc(C)n1)c1cc(C)cc2cccnc12 [Compound D32] | 0.53 nM | –
25 | Cc1nc(CN(C)[C@@H](C)c2ccccn2)c(CO)c(N2CCN(C)[C@@H](C)C2)n1 [Compound A88] | 0.3 nM | –
26 | Cc1nc(CN2CCC[C@H]2c2ncccc2C)cc(NCCN2CCOCC2)n1 [Compound C35] | 2.7 nM | –
27 | CN1CCN(c2cc(CN(C)c3cccc4cccnc34)nc(CO)n2)CC1 [Compound D54] | 7.2 nM | –

Row | Compound | IC50 (CXCR4 [1]) | IC50 (CXCR4 [2])
28 | Cc1nc(CN(C)c2cccc3cccnc23)cc(N2CCN(C3CC3)CC2)n1 [Compound D8] | 1.4 nM | –
29 | Cc1nc(CN(C)c2cc(NS(C)(=O)=O)cc3cccnc23)cc(N2CCN(C)CC2)n1 [Compound D58, N-(8-(methyl((2-methyl-6-(4-methylpiperazin-1-yl)pyrimidin-4-yl)methyl)amino)quinolin-6-yl)methane sulfonamide] | 55 nM | –
30 | Cc1nc(CN(C)c2cc(C(F)(F)F)cc3cccnc23)cc(N2CCN(C)CC2)n1 [Compound D44] | 104 nM | –
31 | C[C@@H](c1ccccn1)N(C)Cc1nc2cccc(N3CCN4CCC[C@@H]4C3)n2c1CO [Compound A100] | 0.29 nM | –
32 | COc1nc(CN(C)c2cccc3cccnc23)cc(N2CCN(C)CC2)n1 [Compound D13] | 2.9 nM | –
33 | Cc1nc(CN2CCC[C@H]2c2ncccc2C)c(C#N)c(N2CCN(C)CC2)n1 [Compound C34] | 1.8 nM | –
34 | C[C@@H](c1ccccn1)N(C)Cc1nc2cccc(N3CCN4CCC[C@H]4C3)n2c1CO [Compound A99] | 0.39 nM | –
35 | Cc1nc(CN(C)c2c(F)ccc3cccnc23)cc(N2CCN(C)CC2)n1 [Compound D17] | 74 nM | –
36 | Cc1nc(CN(C)c2cc(S(C)(=O)=O)cc3cccnc23)cc(N2CCN(C)CC2)n1 [Compound D47] | 13 nM | –
37 | Cc1nc(CN(CCCCNC(=O)OC(C)(C)C)c2cccc3cccnc23)cc(N2CCN(C)CC2)n1 [Compound D27] | 1.7 nM | –
38 | Cc1nc(CN(C)c2cccc3cccnc23)cc(N2CCN(CCO)CC2)n1 [Compound D5] | 2.1 nM | –
39 | C[C@@H](c1ccccn1)N(C)Cc1cn2c(N3CCN(C)CC3)cccc2n1 [Compound A95, (S)-N-methyl-N-((5-(4-methylpiperazin-1-yl)imidazo[1,2-a]pyridin-2-yl)methyl)-1-(pyridin-2-yl)ethan-1-amine] | 0.13 nM | –
40 | Cc1nc(CN(C)c2c(S(C)(=O)=O)ccc3cccnc23)cc(N2CCN(C)CC2)n1 [Compound D51] | 2090 nM | –
41 | Cc1nc(CN(C)c2ccc(C(F)(F)F)c3cccnc23)cc(N2CCN(C)CC2)n1 [Compound D40] | 2850 nM | –
42 | Cc1nc(CN(C)c2nccc3cccnc23)cc(N2CCN(C)CC2)n1 [Compound D21, N-methyl-N-((2-methyl-6-(4-methylpiperazin-1-yl)pyrimidin-4-yl)methyl)-1,7-naphthyridin-8-amine] | 1580 nM | –
43 | Cc1nc(CN(C)[C@@H](C)c2ccccn2)c(CO)c(N2CCN3CCC[C@H]3C2)n1 [Compound A87] | 0.18 nM | –
44 | CN(Cc1cc(N2CCN(CC3CC3)CC2)ncn1)C1CCCc2cccnc21 (centres unmarked) [Compound A60] | – | 464 nM
45 | CC(c1ccccn1)N(C)Cc1cc(N2CCN(C)CC2)ncn1 (centres unmarked) [Compound A4] | – | 229 nM
46 | CN1CCN(c2cc(CN(C)C3CCCc4cccnc43)nc(N3CCCC3)n2)CC1 (centres unmarked) [Compound A13] | – | 8000 nM
47 | Cc1nc(CN(C)C2CC3(CC3)Cc3cccnc32)cc(N2CCN(C)CC2)n1 (centres unmarked) [Compound A46] | – | 161 nM
48 | CSc1nc([C@H](C)N(C)[C@H]2CCCc3cccnc32)cc(N2CCN(C)CC2)n1 [Compound A32] | – | 22 nM
49 | CC(C)c1nc(CN(C)C2CCCc3cccnc32)cc(N2CCN(C)CC2)n1 (centres unmarked) [Compound A29] | – | 78 nM
50 | Cc1nc(CN(C)C(C)c2ncccc2C)cc(N2CCN(C)CC2)n1 (centres unmarked) [Compound A53] | – | 33 nM
51 | CSc1nc(CN2CCCC2c2ccccn2)cc(N2CCN(C)CC2)n1 (centres unmarked) [Compound C11] | – | 142 nM
52 | CSc1nc(CN2CCCCC2c2ccccn2)cc(N2CCN(C)CC2)n1 (centres unmarked) [Compound C18] | – | 429 nM
53 | Cc1nc(CN(C)C(C)c2ccccn2)cc(N2CCN(C)CC2)n1 (centres unmarked) [Compound A52] | – | 27 nM
